Laboratory results: patent publication US7868013B2, “Cycloalkyl substituted pyrimidinediamine compounds and their uses” (Rigel Pharmaceuticals, Inc., priority 2004, dated 2011)
Where a name gives a salt, the structure may show the parent alone. Read-outs that look alike come from different tables or passages of the source.

Assays:
[1] = system: H1299 (non-small cell lung carcinoma); assay: In vitro antiproliferation assay, H1299 cells (TABLE 1 6 point assay; TABLE 2); type: cell-based
Method: (§1) Certain compounds were tested against other cell types for their ability to inhibit proliferation in standard antiproliferation assays.

[2] = system: A549 (lung carcinoma); assay: In vitro antiproliferation assay, A549 cells (TABLE 1 6 point assay; TABLE 2); type: cell-based
Method: as §1

[3] = Homo sapiens, NCI-H1299, 6 point assay, H1299 cells, read-out: IC50, H1299 cells
[4] = Homo sapiens, A549, 6 point assay, A549 cells, read-out: IC50, A549 cells
[5] = Homo sapiens, NCI-H1299, H1299 cells, 6 point assay, read-out: H1299, 6pt (IC50, inhibition of proliferation)
[6] = Homo sapiens, A549, A549 cells, 6 point assay, read-out: A549, 6pt (IC50, inhibition of proliferation)

Row | Structure (SMILES) | IC50 [1, 3] | IC50 [2, 4] | IC50 [1, 5] | IC50 [2, 6] | also measured
1 | CCS(=O)(=O)N1CCN(c2ccc(Nc3ncc(F)c(N[C@H]4[C@@H](C(N)=O)[C@@H]5C=C[C@H]4C5)n3)cc2C)CC1 [compound 270, (1R,2R,3S,4S)-N4-(3-aminocarbonylbicyclo[2.2.1]hept-5-ene-2-yl)-N2-[3-methyl-4-(4-ethylsulfonylpiperazin-1-yl)phenyl]-5-fluoro-2,4-pyrimidinediamine Bis Hydrochloride Salt] |  |  |  |  | IC50 ([1]; 6 point assay, H1299 cells, Bis Hydrochloride Salt, read-out: IC50, H1299 cells): 1 to 10 µM; IC50 ([2]; 6 point assay, A549 cells, Bis Hydrochloride Salt, read-out: IC50, A549 cells): 1 to 10 µM
2 | CN1CCN(C(=O)Cc2ccc(Nc3ncc(F)c(N[C@H]4CCC[C@H]4C(N)=O)n3)cc2)CC1 (racemic) [compound 279, Racemic-cis-N4-(2-aminocarbonylcyclopent-1-yl)-5-fluoro-N2-{4-[(4-methylpiperazin-1-yl)-ethan-1-one-2-yl]phenyl}-2,4-pyrimidinediamine] | 1 to 10 µM | 1 to 10 µM |  |  | 
3 | CN(C)CCN1CCOc2cc(Nc3ncc(F)c(N[C@H]4[C@@H](C(N)=O)[C@@H]5C=C[C@H]4C5)n3)ccc21 [compound 189, (1R,2R,3S,4S)-N4-(3-Aminocarbonylbicyclo[2.2.1]hept-5-en-2-yl)-5-fluoro-N2-(1-[2-(dimethylamino)ethyl]-3,4-dihydro-4H-benz[1,4]oxazin-6-yl}-2,4-pyrimidinediamine] |  |  | ≤ 0.1 µM | ≤ 0.1 µM | 
4 | COc1ccc(C(C)NC(=O)[C@H]2[C@@H](Nc3nc(Nc4ccc(N5CCN(C)CC5)c(C)c4)ncc3F)[C@@H]3C=C[C@H]2C3)cc1 (stereo partly drawn) [compound 124, (1S,2S,3R,4R)-5-Fluoro-N4-(3-(R)-4-methoxy-alpha-methylbenzylaminocarbonylbicyclo[2.2.1]hept-5-en-2-yl]-N2-(3-methyl-4-(4-methylpiperazin-1-yl)phenyl]-2,4-pyrimidinediamine] |  |  | 0.1 to 1 µM | 0.1 to 1 µM | 
5 | NC(=O)[C@@H]1[C@H](Nc2nc(Nc3cccc(C4CCNCC4)c3)ncc2F)[C@H]2C=C[C@@H]1C2 [compound 274, (1R,2R,3S,4S)-N4-(3-Aminocarbonylbicyclo[2.2.1]hept-5-en-2-yl)-5-fluoro-N2-[3-(piperidin-4-yl)phenyl]-2,4-pyrimidinediamine] | ≤ 0.1 µM | ≤ 0.1 µM |  |  | 
6 | COC(=O)CN1CCc2ccc(Nc3ncc(F)c(N[C@H]4CCC[C@H]4C(N)=O)n3)cc2C1 (racemic) [compound 132, Racemic-cis-N4-(2-aminocarbonylcyclopent-1-yl)-5-fluoro-N2-[2-(methoxycarbonylmethylene)-1,2,3,4-tetrahydroisoquin-7-yl]-2,4-pyrimidinediamine] |  |  | 0.1 to 1 µM | 0.1 to 1 µM | 
7 | Cc1cc(Nc2ncc(F)c(NC3C4C=CC(C4)C3C(N)=O)n2)ccc1N1CC2CC1CC2C (racemic) [Compound 285, Racemic-(2-exo,3-exo)-N4-(3-aminocarbonylbicyclo[2.2.1]hept-5-en-2-yl)-5-fluoro-N2-[3-methyl-4-(5-methyl-(1S,4S)-2,5-diazabicyclo[2.2.1]heptan-2-yl)]phenyl-2,4-pyrimidinediamine] | ≤ 0.1 µM | ≤ 0.1 µM |  |  | 
8 | CN(C)CCn1ccc2cc(Nc3ncc(F)c(NC4C5C=CC(C5)C4C(=O)NC4CC4)n3)ccc21 (racemic) [compound 175, Racemic-(2-exo,3-exo)-N4-[3-cyclopropylaminocarbonylbicyclo[2.2.1]hept-5-en-2-yl)-N2-[1-(2-dimethylaminoethyl)indol-5-yl]-5-fluoro-2,4-pyrimidinediamine] |  |  | ≤ 0.1 µM | ≤ 0.1 µM | 
9 | Cc1cc(Nc2ncc(F)c(N[C@H]3[C@@H](C(N)=O)[C@@H]4C=C[C@H]3C4)n2)ccc1OC1CCN(C)CC1 [compound 150, (1R,2R,3S,4S)-N4-(3-Aminocarbonylbicyclo[2.2.1]hept-5-en-2-yl)-5-fluoro-N2-[3-methyl-4-(1-methylpiperidin-4-yloxy)phenyl]-2,4-pyrimidinediamine] |  |  | ≤ 0.1 µM | ≤ 0.1 µM | 
10 | Cc1cc(Nc2ncc(F)c(N[C@@H]3[C@H](C(=O)NC(C)c4ccccc4)[C@H]4C=C[C@@H]3C4)n2)ccc1N1CCN(C)CC1 (stereo partly drawn) [compound 110, (1S,2S,3R,4R)-N4-5-Fluoro-N4-(3-(R)-alpha-methylbenzylaminocarbonylbicyclo[2.2.1]hept-5-en-2-yl)-N2-[3-methyl-4-(4-methylpiperazin-1-yl)phenyl]-2,4-pyrimidinediamine] |  |  | 0.1 to 1 µM | 0.1 to 1 µM | 
11 | CN(C)CCn1ccc2ccc(Nc3ncc(F)c(NC4C5C=CC(C5)C4C(=O)NC4CC4)n3)cc21 (racemic) [compound 169, Racemic-(2-exo,3-exo)-N4-[3-cyclopropylaminocarbonylbicyclo[2.2.1]hept-5-en-2-yl)-N2-[1-(2-dimethylaminoethyl)indol-6-yl]-5-fluoro-2,4-pyrimidinediamine] |  |  | 0.1 to 1 µM | ≤ 0.1 µM | 
12 | CN1CCN(c2ccc(Nc3ncc(F)c(NC4C5C=CC(C5)C4C(N)=O)n3)cc2C#N)CC1 (racemic) [compound 243, Racemic-(2-exo,3-exo)-N4-(3-aminocarbonylbicyclo[2.2.1]hept-5-en-2-yl)-N2-[3-cyano-4-(4-methylpiperazin-1-yl)phenyl]-5-fluoro-2,4-pyrimidinediamine] | ≤ 0.1 µM | ≤ 0.1 µM |  |  | 

The next lines start with results.

Row | IC50 [1, 3] | IC50 [2, 4] | IC50 [1, 5] | IC50 [2, 6] | Structure (SMILES) | also measured
13 | 0.1 to 1 µM | 0.1 to 1 µM |  |  | Cc1cc(Nc2ncc(F)c(NC3CCCC3C(N)=O)n2)ccc1N1CCN(C)CC1 (stereo not drawn) [compound 206, (cis)-N4-(2-Carboxamidocyclopent-1-yl)-5-fluoro-N2-[3-methyl-4-(4-methylpiperazino)phenyl]-2,4-pyrimidinediamine] | IC50 ([2]; Homo sapiens, A549, A549, read-out: In Vitro IC50): ≤ 1 µM
14 | 1 to 10 µM | 0.1 to 1 µM |  |  | Cc1cc(Nc2ncc(F)c(NC3CC=CC3)n2)ccc1N1CCN(C)CC1 [compound 237, N4-(Cyclopent-3-ene-1-yl)-5-fluoro-N2-[3-methyl-4-(4-methylpiperazin-1-yl)phenyl]-2,4-pyrimidinediamine] | 
15 |  |  | 1 to 10 µM | 0.1 to 1 µM | Cc1cc(Nc2ncc(F)c(N[C@@H]3[C@H](C(=O)NC4CC4)[C@H]4C=C[C@@H]3C4)n2)ccc1N1CCN(C)CC1 [compound 191, (1S,2S,3R,4R)-N4-[3-(N-Cyclopropyl)aminocarbonylbicyclo[2.2.1]hept-5-en-2-yl]-5-fluoro-N2-[3-methyl-4-(4-methylpiperazin-1-yl)phenyl]-2,4-pyrimidinediamine] | 
16 | 0.1 to 1 µM | 0.1 to 1 µM |  |  | CN1CCN(c2cccc(Nc3ncc(F)c(NC4CCCC4C(N)=O)n3)c2)CC1 (stereo not shown) [compound 195] | 
17 |  |  | ≤ 0.1 µM | ≤ 0.1 µM | Cc1cc(Nc2ncc(F)c(NC3C4C=CC(C4)C3C(=O)NC(C)C)n2)ccc1N1CCN(C)CC1 (racemic) [compound 162] | 
18 |  |  | 1 to 10 µM | 1 to 10 µM | Cc1cc(Nc2ncc(F)c(NC3C4C=CC(C4)C3C(=O)OC3C[C@@H](C)CC[C@@H]3C(C)C)n2)ccc1N1CCN(C)CC1 (mixture of isomers) [compound 135, Racemic (2-exo,3-exo)-5-Fluoro-N4-[3-(1R,2S,5R)-(−)-menthyloxycarbonylbicyclo[2.2.1]hept-5-en-2-yl]-N2-[3-methyl-4-(4-methylpiperazin-1-yl)phenyl]-2,4-pyrimidinediamine] | 
19 |  |  | ≤ 0.1 µM | ≤ 0.1 µM | Cc1cc(Nc2ncc(F)c(NC3C4C=CC(C4)C3C(=O)NC3CC3)n2)ccc1N1CCN(C)CC1 (racemic) [compound 164, Racemic-(2-exo,3-exo)-N4-[3-(N-cyclopropyl)aminocarbonylbicyclo[2.2.1]hept-5-en-2-yl)-5-fluoro-N2-[3-methyl-4-(4-methylpiperazin-1-yl)phenyl]-2,4-pyrimidinediamine] | 
20 | 0.1 to 1 µM | 0.1 to 1 µM |  |  | Cc1cc(Nc2ncc(F)c(N[C@@H]3C=C[C@H](C(N)=O)C3)n2)ccc1N1CCN(C)CC1 [compound 225, (1S,4R)-cis-N4-(4-Aminocarbonylcyclopent-2-ene-1-yl)-5-fluoro-N2-[3-methyl-4-(4-methylpiperazin-1-yl)phenyl]-2,4-pyrimidinediamine] | 
21 |  |  | 0.1 to 1 µM | 0.1 to 1 µM | Cc1cc(Nc2ncc(F)c(N[C@H]3CCC[C@H]3C(=O)NC3CC3)n2)ccc1N1CCN(C)CC1 (racemic) [compound 159, Racemic-cis-N4-[2-(N-cyclpropyl)aminocarbonylcyclopent-1-yl]-5-fluoro-N2-[4-(4-methylpiperazin-1-yl)-3-methylphenyl]-2,4-pyrimidinediamine] | 
22 |  |  | 1 to 10 µM | 0.1 to 1 µM | Cc1cc(Nc2ncc(F)c(N[C@H]3CCC[C@H]3C(=O)NCC3CC3)n2)ccc1N1CCN(C)CC1 (racemic) [compound 158, Racemic-cis-N4-[2-(N-cyclopropylmethyl)aminocarbonylcyclopent-1-yl]-5-fluoro-N2-[4-(4-methylpiperazin-1-yl)-3-methylphenyl]-2,4-pyrimidinediamine] | 
23 | 1 to 10 µM | 1 to 10 µM |  |  | Cc1cc(Nc2ncc(F)c(NC34CC5CC(CC3C5)C4)n2)ccc1N1CCN(C)CC1 [compound 259, 5-Fluoro-N2-[3-methyl-4-(4-methylpiperazin-1-yl)phenyl]-N4-(3-noradamantyl)-2,4-pyrimidinediamine] | 
24 | 1 to 10 µM | 1 to 10 µM |  |  | Cc1cc(Nc2ncc(F)c(NC3C4CC5CC(C4)CC3C5)n2)ccc1N1CCN(C)CC1 (stereo not shown) [compound 258, N4-(2-Adamantyl)-5-fluoro-N2-[3-methyl-4-(4-methylpiperazin-1-yl)phenyl]-2,4-pyrimidinediamine] | 
